Reference: PMC6009875, “Structure–activity relationships of fraxamoside as an unusual xanthine oxidase inhibitor” (Journal of Enzyme Inhibition and Medicinal Chemistry, 2017)
Read-outs that look alike come from different tables or passages of the source. Each block holds one molecule with its values, some of them ahead of it.

Key:
XO [1] = system: XO; set-up: method as in PMID 25102361; conditions: read-out: IC50 (XO inhibitory effect); cited from earlier work
[2] = target: T1, Xanthine oxidase from bovine milk (Bos taurus, UniProt P80457); assay: XO inhibition kinetics (Lineweaver-Burk, Ki); format: biochemical; conditions: for Inhibition mode: Lineweaver-Burk plots
T1 construct: Xanthine oxidase from bovine milk (0.2 U/mg); purchased Sigma-Aldrich (St. Louis, MO); host or cells: bovine milk
Protocol: The assay was carried out in a 500-μL final volume buffer A, constituted by 50 mM phosphate buffer, pH 7.8, 0.1 mM EDTA, supplemented with increasing concentration of xanthine as substrate in the absence or in the presence of variable amounts of the selected inhibitor. The assay was initiated by adding 10 μL of 160 U/L XO solution to the reaction mixture, without or with inhibitors, and it was followed in kinetics by reading the absorbance up to 2 min at 20 °C, thus calculating the rate of acid uric formation in the linear range of the reaction. The kinetic parameters of the XO reaction were derived from Lineweaver–Burk plots obtained measuring the rate of uric acid formation at different xanthine concentration (ranging between 0.4 and10 μM). Inhibition studies were carried out by measuring the kinetic parameters in the presence of different inhibitors. […] Km/Ki + Km.
The kinetic parameters of XO were determined by Lineweaver–Burk plot using a standard curve-fitting program. At each single concentration of substrate, the activity was evaluated in triplicate. […] Correlation and regression analyses and statistical analysis were made with Student’s t-test, using the software KaleidaGraph (Reading, PA). p values lower than 0.05 were considered to be significant.

[3] = target: T1, Xanthine oxidase from bovine milk; assay: XO activity assay (IC50, uric acid formation at 295 nm); format: biochemical; conditions: total absence of methanol; 50 μM xanthine, pH 7.8, 20 °C
Protocol: The assay was carried out in a 500 μL final volume reaction mixture, containing 50 mM phosphate buffer, pH 7.8, 0.1 mM EDTA, 50 μM xanthine as substrate, 3.2 U/L XO, and different amounts of each compound as potential XO inhibitor. The assay was started by adding 10 μL of the enzyme stock solution to the reaction mixture and followed by reading the absorbance up to 2 min at 20 °C, thus calculating the corresponding rate in the linear range of the reaction. For each sample, the extent of the inhibitory effect (i) was calculated as i = (V0 – Vi)/V0 where V0 and Vi are respectively the rate measured in the absence or presence at least six different amounts of the compounds used [I], whose range of concentration was properly chosen.

XO [4] = system: XO; set-up: method as in Flemmig et al.[52]; conditions: ref Flemmig et al.[52], cited from earlier work

T1 sequence (P80457 whole entry): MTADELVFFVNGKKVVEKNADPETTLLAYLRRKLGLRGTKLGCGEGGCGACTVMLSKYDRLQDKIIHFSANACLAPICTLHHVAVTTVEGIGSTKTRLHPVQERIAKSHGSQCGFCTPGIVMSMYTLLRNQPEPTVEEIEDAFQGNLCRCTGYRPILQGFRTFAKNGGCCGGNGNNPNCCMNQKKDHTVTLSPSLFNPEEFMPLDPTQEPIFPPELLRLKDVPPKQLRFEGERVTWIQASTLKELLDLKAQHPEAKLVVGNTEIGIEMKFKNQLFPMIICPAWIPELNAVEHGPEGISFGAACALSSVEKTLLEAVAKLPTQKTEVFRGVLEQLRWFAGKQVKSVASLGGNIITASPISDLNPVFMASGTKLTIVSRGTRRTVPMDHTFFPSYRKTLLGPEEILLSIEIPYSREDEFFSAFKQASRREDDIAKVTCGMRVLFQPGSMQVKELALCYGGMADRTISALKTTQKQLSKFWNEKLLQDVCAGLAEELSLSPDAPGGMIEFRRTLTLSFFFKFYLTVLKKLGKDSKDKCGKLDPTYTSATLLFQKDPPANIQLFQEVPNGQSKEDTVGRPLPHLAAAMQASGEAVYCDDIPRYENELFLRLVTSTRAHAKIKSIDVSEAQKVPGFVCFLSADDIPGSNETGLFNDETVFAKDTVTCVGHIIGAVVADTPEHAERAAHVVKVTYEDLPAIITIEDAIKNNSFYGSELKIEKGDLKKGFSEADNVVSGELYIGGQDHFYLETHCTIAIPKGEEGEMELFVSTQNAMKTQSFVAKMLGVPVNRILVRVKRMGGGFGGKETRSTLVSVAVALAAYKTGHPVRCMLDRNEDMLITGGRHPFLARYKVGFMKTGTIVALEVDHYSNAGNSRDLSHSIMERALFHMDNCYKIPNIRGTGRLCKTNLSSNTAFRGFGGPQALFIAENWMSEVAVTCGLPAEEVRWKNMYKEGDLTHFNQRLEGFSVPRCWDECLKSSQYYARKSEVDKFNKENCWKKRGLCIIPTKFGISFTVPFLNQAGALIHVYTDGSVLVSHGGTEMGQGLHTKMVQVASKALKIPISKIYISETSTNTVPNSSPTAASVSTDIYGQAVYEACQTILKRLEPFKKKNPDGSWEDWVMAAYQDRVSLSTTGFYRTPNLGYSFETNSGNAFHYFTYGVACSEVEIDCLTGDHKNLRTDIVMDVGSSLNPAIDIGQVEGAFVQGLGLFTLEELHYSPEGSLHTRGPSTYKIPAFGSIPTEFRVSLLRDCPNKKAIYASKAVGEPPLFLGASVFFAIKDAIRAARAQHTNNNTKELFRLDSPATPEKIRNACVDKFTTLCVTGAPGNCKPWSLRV

Structure (SMILES): O=c1c(O)c(-c2ccc(O)c(O)c2)oc2cc(O)cc(O)c12 [quercetin]
- IC50 (XO [1]): 1.9 µM

Structure (SMILES): Oc1ncnc2[nH]ncc12 [Allopurinol, allopurinol, reference compound]
- Inhibition mode [2]: competitive inhibition mode

Structure (SMILES): C/C=C1/[C@H](O[C@@H]2O[C@H](CO)[C@@H](O)[C@H](O)[C@H]2O)OC=C(C(=O)OC)[C@H]1CC(=O)O [Compound 3, oleoside 11-methyl ester]
- IC50 [3]: 259 ± 13 µM

Structure (SMILES): O=c1c(O[C@@H]2O[C@H](CO)[C@@H](O)[C@H](O)[C@H]2O)c(-c2ccc(O)c(O)c2)oc2cc(O)cc(O)c12 [quercetin 3-O-glucoside]
- IC50 (XO [1]): 54.6 µM

Further lines, with some results ahead:

- IC50 [3]: 16.1 ± 0.7 µM
- Inhibition mode [2]: Competitive
- Inhibition mode ([2]; listed as fraxamoside): competitively inhibited
- Ki lower than that of oleuropein (fold) ([2]; fraxamoside Ki versus oleuropein Ki): at least 50 times
- Ki ([2]; secondary plot of K'm versus [I], xanthine 0.4-10 μM, pH 7.8, 20 °C): 0.9 ± 0.25 µM
Structure (SMILES): C/C=C1/[C@H]2OC=C(C(=O)OC)[C@H]1CC(=O)OC[C@@H](c1ccc(O)c(O)c1)OC[C@H]1O[C@@H](O2)[C@H](O)[C@@H](O)[C@@H]1O [Compound 1, fraxamoside]

- IC50 [3]: 335 ± 17 µM
Structure (SMILES): C/C=C1/[C@H](O[C@@H]2O[C@H](CO)[C@@H](O)[C@H](O)[C@H]2O)OC=C(C(=O)OC)[C@H]1CC(=O)OCCc1ccc(O)c(O)c1 [Compound 2, oleuropein]
- Inhibition mode (XO [4]): Competitive^a
- Inhibition mode (XO [4]; listed as oleuropein): competitive inhibition mode
- Ki (XO [4]; read-out: Ki): 53 µM

- IC50 [3]: 1130 ± 22 µM
Structure (SMILES): OCCc1ccc(O)c(O)c1 [Compound 4, hydroxytyrosol]
- Ki (XO [4]): No inhibition^a
